# Test results published in article PMC8294059, “Identification and Immune Assessment of T Cell Epitopes in Five Plasmodium falciparum Blood Stage Antigens to Facilitate Vaccine Candidate Selection and Optimization” (Frontiers in Immunology, 2021).
# Where a SMILES comes first, the peptide text is derived from it.
# Biological target: HLA-A*0201 (Homo sapiens, UniProt P04439, D140Y/D185E/D98H/E176V/E277Q/G131W/G231S/I119V/I121R/I166T/I218V/L300P/L318F/N151K/N90K/P208A/P217A/Q86G/Q94H/R138H/R169H/T345S)
# Test: In vitro class I HLA binding assay (fluorescence polarization competition)
# Conditions: allele A*0201; fluorescence polarization competition
# Procedure, shortened: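 Cell-free competition assay: HLA heat-treated 53°C for 15 min to strip endogenous peptides, then mixed with fluorescent high-affinity control peptide and test peptides for 72 h to equilibrium. Displacement read by fluorescence polarization as percent inhibition; IC50 derived from a concentration range.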
row,Compound,"IC50 (nM), in vitro HLA binding affinity"
1,KRASHTTPV [AMA1_607],Non-binder

# Same assay, conditions: allele A*0201; fluorescence polarization competition; read-out: IC50 (nM), in vitro HLA binding affinity
row,Compound,IC50 [nM]
1,CC[C@H](C)[C@H](NC(=O)[C@H](Cc1c[nH]c2ccccc12)NC(=O)[C@H](CO)NC(=O)[C@H](CC(=O)O)NC(=O)[C@H](CCCCN)NC(=O)[C@@H](NC(=O)[C@@H](N)CCCCN)C(C)C)C(=O)N[C@H](C(=O)N[C@@H](CC(C)C)C(=O)O)[C@@H](C)O [CYRPA_082] (H-KVKDSWITL-OH),4010
2,CC[C@H](C)[C@H](NC(=O)[C@H](CS)NC(=O)[C@@H](NC(=O)CNC(=O)[C@H](CC(N)=O)NC(=O)[C@H](CCC(=O)O)NC(=O)[C@H](CC(C)C)NC(=O)[C@@H](NC(=O)[C@@H](N)Cc1ccccc1)C(C)C)C(C)C)C(=O)O [RIPR_0745] (H-FVLENGVCI-OH),4170

# Biological target: HLA-A*0301 (Homo sapiens, UniProt P04439)
# Test: biochemical
# Type: binding
# Conditions: not given
# Description: (§1) A cell-free class I HLA binding assay that allows for in vitro quantification of peptide-HLA binding affinity in a competition format was used. In this assay, a fluorescently labeled, high binding, control peptide is loaded onto 384-well ½-area plates along with unlabeled experimental peptides. To remove endogenous peptides and render the HLA A and B molecules receptive to binding, HLA is heated at 53°C for 15 minutes and immediately added to the assay. The mixture is then allowed to stand for three days. Once the mixture has reached steady equilibrium (at 72 hours), displacement of the high binding control peptide is measured through fluorescence polarization. Binding of experimental peptides is expressed as the percent inhibition of the labeled control peptide (experimental fluorescence / control fluorescence, multiplied by 100). The percent inhibition values for each experimental peptide (across a range of molar concentrations) are used to calculate the concentration which inhibits 50% of the labeled control peptide’s specific binding. This value is referred to as the peptide’s IC50.
row,Compound,IC50 [nM]
1,CC[C@H](C)[C@H](NC(=O)[C@@H](N)Cc1ccccc1)C(=O)N[C@@H](CO)C(=O)N[C@@H](CC(=O)O)C(=O)N[C@@H](CC(=O)O)C(=O)N[C@@H](CCCCN)C(=O)N[C@@H](CC(=O)O)C(=O)N[C@@H](CO)C(=O)N[C@@H](CC(C)C)C(=O)N[C@@H](CCCCN)C(=O)O [AMA1_480K] (H-FISDDKDSLK-OH),697000

# Same assay, conditions: allele A*0301; cell-free competition, fluorescence polarization at 72 hours; Non-binder = no dose-dependent inhibition; read-out: IC50
row,Compound,IC50 [nM]
1,CC[C@H](C)[C@H](NC(=O)[C@H](Cc1ccccc1)NC(=O)[C@@H](NC(=O)[C@H](Cc1ccccc1)NC(=O)[C@@H](NC(=O)[C@@H](N)CCCCN)[C@@H](C)CC)[C@@H](C)O)C(=O)N[C@@H](CCC(=O)O)C(=O)N[C@@H](CC(N)=O)C(=O)N[C@@H](CCCCN)C(=O)O [EBA175_0058] (H-KIFTFIENK-OH),467
2,CC[C@H](C)[C@H](N)C(=O)N[C@@H](CC(C)C)C(=O)N[C@@H](CC(N)=O)C(=O)N[C@@H](CC(N)=O)C(=O)N[C@@H](CO)C(=O)N[C@@H](CCCCN)C(=O)N[C@@H](Cc1ccccc1)C(=O)N[C@@H](CC(N)=O)C(=O)N[C@@H](CCCCN)C(=O)O [EBA175_0069] (H-ILNNSKFNK-OH),420
3,CC[C@H](C)[C@H](NC(=O)[C@H](Cc1c[nH]c2ccccc12)NC(=O)[C@H](CCC(=O)O)NC(=O)[C@H](CCCCN)NC(=O)[C@H](Cc1ccc(O)cc1)NC(=O)[C@H](CO)NC(=O)[C@@H](N)CC(N)=O)C(=O)N[C@@H](CO)C(=O)N[C@@H](CCCCN)C(=O)N[C@@H](CCCCN)C(=O)O [EBA175_0667] (H-NSYKEWISKK-OH),7370
4,CC[C@H](C)[C@H](NC(=O)[C@H](CC(=O)O)NC(=O)[C@@H](NC(=O)[C@H](Cc1c[nH]cn1)NC(=O)[C@H](CO)NC(=O)[C@H](CC(C)C)NC(=O)[C@@H](N)CCCNC(=N)N)[C@@H](C)O)C(=O)N[C@@H](Cc1c[nH]cn1)C(=O)N[C@@H](CCCCN)C(=O)O [EBA175_1214] (H-RLSHTDIHK-OH),1740

# Same assay, conditions: allele A*0301; fluorescence polarization competition; read-out: IC50 (nM), in vitro HLA binding affinity
row,Compound,IC50 [nM]
1,CC(C)C[C@H](NC(=O)[C@H](Cc1ccc(O)cc1)NC(=O)[C@H](CCC(N)=O)NC(=O)[C@H](CC(N)=O)NC(=O)CNC(=O)[C@@H](NC(=O)[C@H](C)NC(=O)[C@@H](NC(=O)[C@@H]1CCCN1)C(C)C)[C@@H](C)O)C(=O)N[C@@H](CCCCN)C(=O)O [AMA1_168] (H-PVATGNQYLK-OH),328000
2,CC(C)C[C@H](NC(=O)[C@H](Cc1ccccc1)NC(=O)[C@H](C)NC(=O)[C@@H](N)CO)C(=O)N1CCC[C@H]1C(=O)N[C@H](C(=O)NCC(=O)N[C@@H](C)C(=O)N[C@@H](Cc1ccccc1)C(=O)N[C@@H](CCCCN)C(=O)O)[C@@H](C)O [AMA1_377] (H-SAFLPTGAFK-OH),345
3,CC[C@H](C)[C@H](NC(=O)[C@@H](N)Cc1c[nH]cn1)C(=O)N[C@@H](Cc1ccc(O)cc1)C(=O)N[C@H](C(=O)N[C@@H](CCC(N)=O)C(=O)N[C@@H](CCCCN)C(=O)N[C@@H](CCCCN)C(=O)N[C@H](C(=O)N[C@@H](CCCCN)C(=O)O)C(C)C)C(C)C [CYRPA_076] (H-HIYVQKKVK-OH),897
4,CC(C)C[C@H](NC(=O)[C@@H]1CCCN1C(=O)[C@H](CC(C)C)NC(=O)[C@H](CO)NC(=O)[C@@H](NC(=O)[C@H](Cc1ccc(O)cc1)NC(=O)[C@H](CO)NC(=O)[C@H](CO)NC(=O)[C@@H](N)CC(C)C)C(C)C)C(=O)N[C@@H](CCCCN)C(=O)O [CYRPA_161] (H-LSSYVSLPLK-OH),654
5,CC[C@H](C)[C@H](NC(=O)[C@@H](N)CC(C)C)C(=O)N[C@@H](CS)C(=O)NCC(=O)N[C@H](C(=O)N[C@@H](CO)C(=O)N1CCC[C@H]1C(=O)N[C@@H](Cc1ccc(O)cc1)C(=O)N[C@@H](CCCCN)C(=O)O)C(C)C [CYRPA_178] (H-LICGVSPYK-OH),419
6,CC[C@H](C)[C@H](NC(=O)[C@H](CO)NC(=O)[C@H](CC(N)=O)NC(=O)[C@H](Cc1ccc(O)cc1)NC(=O)[C@H](CO)NC(=O)[C@H](CC(C)C)NC(=O)[C@@H](N)Cc1c[nH]cn1)C(=O)N[C@@H](Cc1ccc(O)cc1)C(=O)N[C@@H](Cc1c[nH]cn1)C(=O)N[C@@H](CCCCN)C(=O)O [RH5_187] (H-HLSYNSIYHK-OH),44200
7,CC[C@H](C)[C@H](NC(=O)[C@H](CO)NC(=O)[C@H](CC(N)=O)NC(=O)[C@H](Cc1ccc(O)cc1)NC(=O)[C@H](CO)NC(=O)[C@@H](N)CC(C)C)C(=O)N[C@@H](Cc1ccc(O)cc1)C(=O)N[C@@H](Cc1c[nH]cn1)C(=O)N[C@@H](CCCCN)C(=O)O [RH5_188] (H-LSYNSIYHK-OH),3070

# Biological target: HLA-B*0702 (Homo sapiens, UniProt P01889)
# Test: In vitro class I HLA binding assay (fluorescence polarization competition)
# Conditions: allele B*0702; cell-free competition, fluorescence polarization at 72 hours; Non-binder = no dose-dependent inhibition
# Description: as §1, with “Once the mixture has reached steady equilibrium (at 72 hours), displacement of the high binding control peptide is measured through fluorescence polarization.” left out
row,Compound,IC50 (nM)
1,LQKHGFHTM [EBA175_1260],Non-binder
2,NPQQSVGENG [EBA175_0794],Non-binder
3,TPGPLDNTSE [EBA175_1073],Non-binder

# Same assay, conditions: allele B*0702; fluorescence polarization competition
row,Compound,"IC50 (nM), in vitro HLA binding affinity"
1,CPENSTCEQI [RIPR_0331],Non-binder
2,FITSDHLRQM [RH5_469],Non-binder
3,FNRIEYHTKI [RH5_421],Non-binder
4,FPCSLYKDEI [AMA1_441],Non-binder
5,HPYDINNKND [RH5_240],Non-binder
6,IPHYTFLDYY [RH5_176],Non-binder
7,KPHECVCNKQ [RIPR_0878],Non-binder
8,KRASHTTPV [AMA1_607],Non-binder
9,KSAFLPTGAF [AMA1_376],Non-binder
10,LPIKSTEEEK [RH5_042],Non-binder
11,LPSAKNNCEY [RIPR_0313],Non-binder
12,MDMKNYGTNL [RH5_330],Non-binder
13,MIRIKKKLIL [RH5_001],Non-binder
14,MNRTFKKMM [RH5_296],Non-binder

# Same assay, conditions: allele B*0702; fluorescence polarization competition; read-out: IC50 (nM), in vitro HLA binding affinity
row,Compound,IC50 [nM]
1,CC[C@H](C)[C@H](NC(=O)[C@H](Cc1c[nH]c2ccccc12)NC(=O)[C@H](CO)NC(=O)[C@H](CC(=O)O)NC(=O)[C@H](CCCCN)NC(=O)[C@@H](NC(=O)[C@@H](N)CCCCN)C(C)C)C(=O)N[C@H](C(=O)N[C@@H](CC(C)C)C(=O)O)[C@@H](C)O [CYRPA_082] (H-KVKDSWITL-OH),458
2,CC(C)C[C@H](NC(=O)[C@H](CC(=O)O)NC(=O)[C@H](CC(N)=O)NC(=O)[C@H](CCCCN)NC(=O)[C@H](CCCCN)NC(=O)[C@H](CCCCN)NC(=O)[C@H](CC(N)=O)NC(=O)[C@H](CO)NC(=O)[C@@H]1CCCN1C(=O)[C@@H](N)[C@@H](C)O)C(=O)O [RH5_286] (H-TPSNKKKNDL-OH),1880
3,CC[C@H](C)[C@H](N)C(=O)N[C@H](C(=O)N[C@@H](CO)C(=O)N[C@@H](CC(=O)O)C(=O)N[C@@H](Cc1c[nH]cn1)C(=O)N[C@@H](CC(C)C)C(=O)N[C@@H](CCCNC(=N)N)C(=O)N[C@@H](CCC(N)=O)C(=O)N[C@@H](CCSC)C(=O)O)[C@@H](C)O [RH5_470] (H-ITSDHLRQM-OH),183000
4,CSCC[C@H](NC(=O)[C@H](CCC(=O)O)NC(=O)[C@H](CC(N)=O)NC(=O)[C@H](CCC(=O)O)NC(=O)[C@H](CCC(N)=O)NC(=O)[C@H](CC(C)C)NC(=O)[C@H](CC(N)=O)NC(=O)[C@H](CC(C)C)NC(=O)[C@@H]1CCCN1C(=O)[C@@H](N)CO)C(=O)O [RIPR_0246] (H-SPLNLQENEM-OH),22400
5,CC(C)C[C@H](NC(=O)[C@@H](NC(=O)[C@H](CO)NC(=O)[C@H](CCC(=O)O)NC(=O)[C@H](CS)NC(=O)[C@H](CC(=O)O)NC(=O)[C@H](CC(N)=O)NC(=O)[C@@H]1CCCN1C(=O)[C@@H](N)CCCNC(=N)N)C(C)C)C(=O)O [RIPR_0676] (H-RPNDCESVL-OH),377
6,CC[C@H](C)[C@H](NC(=O)[C@H](CS)NC(=O)[C@@H](NC(=O)CNC(=O)[C@H](CC(N)=O)NC(=O)[C@H](CCC(=O)O)NC(=O)[C@H](CC(C)C)NC(=O)[C@@H](NC(=O)[C@@H](N)Cc1ccccc1)C(C)C)C(C)C)C(=O)O [RIPR_0745] (H-FVLENGVCI-OH),284000
7,CC(C)C[C@H](NC(=O)[C@H](CC(N)=O)NC(=O)[C@H](CCC(=O)O)NC(=O)[C@H](CCCCN)NC(=O)[C@H](CS)NC(=O)[C@@H](NC(=O)[C@H](CS)NC(=O)[C@H](CCC(=O)O)NC(=O)[C@@H]1CCCN1C(=O)[C@@H](N)CCCCN)C(C)C)C(=O)O [RIPR_0836] (H-KPECVCKENL-OH),206000
